Data from PubChem BioAssay (NCI).
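Five compound concentrations were applied to cells in 96-well plates for 48 hours; endpoints were derived by simple linear interpolation of the resulting dose-response curve. Here, GI50 denotes the concentration required for 50% inhibition of growth. TGI: total growth inhibition.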

Legend:
Experiment in all cases: inhibition of tumour cell growth, NCI panel, 48 h
[1] = tested on: 786-0 renal
[2] = tested on: A498 renal
[3] = tested on: A549 NSCLC
[4] = tested on: ACHN renal
[5] = tested on: BT-549 breast
[6] = tested on: CAKI-1 renal
[7] = tested on: CCRF-CEM leukemia
[8] = tested on: COLO 205 colon
[9] = tested on: DU-145 prostate
[10] = tested on: EKVX NSCLC
[11] = tested on: HCC-2998 colon
[12] = tested on: HCT-116 colon
[13] = tested on: HCT-15 colon
[14] = tested on: HL-60(TB) leukemia
[15] = tested on: HOP-62 NSCLC
[16] = tested on: HOP-92 NSCLC
[17] = tested on: HS 578T breast
[18] = tested on: HT29 colon
[19] = tested on: IGROV1 ovarian
[20] = tested on: K-562 leukemia
[21] = tested on: KM12 colon
[22] = tested on: LOX IMVI melanoma
[23] = tested on: M14 melanoma
[24] = tested on: MALME-3M melanoma
[25] = tested on: MCF7 breast
[26] = tested on: MDA-MB-231 breast
[27] = tested on: MDA-MB-435
[28] = tested on: MOLT-4 leukemia
[29] = tested on: NCI-H226 lung
[30] = tested on: NCI-H23 lung
[31] = tested on: NCI-H460 lung
[32] = tested on: NCI-H522 lung
[33] = tested on: NCI/ADR-RES ovarian
[34] = tested on: OVCAR-4 ovarian
[35] = tested on: OVCAR-5 ovarian
[36] = tested on: OVCAR-8 ovarian
[37] = tested on: PC-3 prostate
[38] = tested on: RPMI-8226 leukemia
[39] = tested on: RXF 393 renal
[40] = tested on: SF-268 CNS
[41] = tested on: SF-295 CNS
[42] = tested on: SF-539 CNS
[43] = tested on: SK-MEL-2 melanoma
[44] = tested on: SK-MEL-28 melanoma
[45] = tested on: SK-MEL-5 melanoma
[46] = tested on: SK-OV-3 ovarian
[47] = tested on: SN12C renal
[48] = tested on: SNB-19 CNS
[49] = tested on: SNB-75 CNS
[50] = tested on: SR leukemia
[51] = tested on: SW-620 colon
[52] = tested on: T-47D breast
[53] = tested on: TK-10 renal
[54] = tested on: U251 CNS
[55] = tested on: UACC-257 melanoma
[56] = tested on: UACC-62 melanoma
[57] = tested on: UO-31 renal
[58] = tested on: OVCAR-3 ovarian

**Q.** Which results are given for C#Cc1nc(/C=C/C(=O)c2nccn2C)cs1?
**A.** GI50 [1]: 0.262 µM; TGI [1]: 0.623 µM; GI50 [2]: 0.78 µM; TGI [2]: 1.52 µM; GI50 [3]: 1.11 µM; TGI [3]: 3.06 µM; GI50 [4]: 0.291 µM; TGI [4]: 0.794 µM; GI50 [5]: 0.815 µM; TGI [5]: 1.53 µM; GI50 [6]: 0.735 µM; TGI [6]: 1.48 µM; GI50 [7]: 0.149 µM; TGI [7]: 0.566 µM; GI50 [8]: 0.815 µM; TGI [8]: 1.73 µM; GI50 [9]: 0.583 µM; TGI [9]: 1.28 µM; GI50 [10]: 0.964 µM; TGI [10]: 1.96 µM; GI50 [11]: 0.88 µM; TGI [11]: 1.62 µM; GI50 [12]: 0.456 µM; TGI [12]: 1.22 µM; GI50 [13]: 0.51 µM; TGI [13]: 1.31 µM; GI50 [14]: 0.167 µM; TGI [14]: 0.645 µM; GI50 [15]: 1.05 µM; TGI [15]: 1.96 µM; GI50 [16]: 1.05 µM; TGI [16]: 1.88 µM; GI50 [17]: 1.04 µM; TGI [17]: 3.13 µM; GI50 [18]: 0.837 µM; TGI [18]: 1.7 µM; GI50 [19]: 0.105 µM; TGI [19]: 0.215 µM; GI50 [20]: 0.377 µM; TGI [20]: 2.26 µM; GI50 [21]: 0.498 µM; TGI [21]: 1.2 µM; GI50 [22]: 0.0229 µM; TGI [22]: 0.0499 µM; GI50 [23]: 0.845 µM; TGI [23]: 1.98 µM; GI50 [24]: 0.893 µM; TGI [24]: 1.83 µM; GI50 [25]: 0.537 µM; TGI [25]: 1.94 µM; GI50 [26]: 0.708 µM; TGI [26]: 1.5 µM; GI50 [27]: 0.976 µM; TGI [27]: 2.82 µM; GI50 [28]: 0.859 µM; TGI [28]: 2.5 µM; GI50 [29]: 1.49 µM; TGI [29]: 9.13 µM; GI50 [30]: 0.798 µM; TGI [30]: 1.72 µM; GI50 [31]: 0.898 µM; TGI [31]: 2.1 µM; GI50 [32]: 0.566 µM; TGI [32]: 1.37 µM; GI50 [33]: 0.723 µM; TGI [33]: 2.7 µM; GI50 [34]: 1 µM; TGI [34]: 2.34 µM; GI50 [35]: 0.859 µM; TGI [35]: 1.6 µM; GI50 [36]: 1.16 µM; TGI [36]: 4.36 µM; GI50 [37]: 0.778 µM; TGI [37]: 1.69 µM; GI50 [38]: 0.205 µM; TGI [38]: 0.894 µM; GI50 [39]: 0.502 µM; TGI [39]: 1.39 µM; GI50 [40]: 0.813 µM; TGI [40]: 1.83 µM; GI50 [41]: 0.961 µM; TGI [41]: 1.87 µM; GI50 [42]: 0.748 µM; TGI [42]: 1.47 µM; GI50 [43]: 0.909 µM; TGI [43]: 2.06 µM; GI50 [44]: 0.915 µM; TGI [44]: 2.04 µM; GI50 [45]: 1.04 µM; TGI [45]: 2.32 µM; GI50 [46]: 1.18 µM; TGI [46]: 2.44 µM; GI50 [47]: 0.797 µM; TGI [47]: 1.7 µM; GI50 [48]: 0.812 µM; TGI [48]: 1.55 µM; GI50 [49]: 0.668 µM; TGI [49]: 1.36 µM; GI50 [50]: 0.125 µM; TGI [50]: 0.471 µM; GI50 [51]: 0.607 µM; TGI [51]: 1.4 µM; GI50 [52]: 0.229 µM; TGI [52]: 1.38 µM; GI50 [53]: 1.17 µM; TGI [53]: 2.12 µM; GI50 [54]: 0.775 µM; TGI [54]: 1.54 µM; GI50 [55]: 0.732 µM; TGI [55]: 1.61 µM; GI50 [56]: 0.715 µM; TGI [56]: 1.46 µM; GI50 [57]: 0.132 µM; TGI [57]: 0.355 µM

**Q.** What does the source list for N#Cc1c(-n2c(Br)c(Br)c3cc(Br)ccc32)[nH]c2c(Br)cc(Br)cc12?
**A.** GI50 [1]: 1.58 µM; TGI [1]: 8.78 µM; GI50 [2]: 0.767 µM; TGI [2]: 2.4 µM; GI50 [3]: 1.73 µM; TGI [3]: > 50 µM; GI50 [4]: 3.23 µM; TGI [4]: > 50 µM; GI50 [5]: 1.16 µM; TGI [5]: 2.64 µM; GI50 [6]: 1.55 µM; TGI [6]: 9.73 µM; GI50 [7]: 1.38 µM; TGI [7]: > 18.2 µM; GI50 [8]: 1.1 µM; TGI [8]: 3.09 µM; GI50 [9]: 2.25 µM; TGI [9]: > 50 µM; GI50 [10]: 2.04 µM; TGI [10]: > 50 µM; GI50 [11]: 1.32 µM; TGI [11]: 15.7 µM; GI50 [12]: 0.986 µM; TGI [12]: 2.99 µM; GI50 [13]: 0.938 µM; TGI [13]: > 18.3 µM; GI50 [14]: 1.24 µM; TGI [14]: 2.95 µM; GI50 [15]: 1.38 µM; TGI [15]: 4.14 µM; GI50 [16]: 0.383 µM; TGI [16]: 1.9 µM; GI50 [17]: 1.06 µM; TGI [17]: 3.56 µM; GI50 [18]: 1.48 µM; TGI [18]: 5.23 µM; GI50 [19]: 2.14 µM; TGI [19]: > 50 µM; GI50 [20]: 0.735 µM; TGI [20]: > 50 µM; GI50 [21]: 1.45 µM; TGI [21]: 6.41 µM; GI50 [22]: 5.74 µM; TGI [22]: 15.7 µM; GI50 [23]: 1.49 µM; TGI [23]: 7.6 µM; GI50 [24]: 1.68 µM; TGI [24]: 7.21 µM; GI50 [25]: 1.16 µM; TGI [25]: 7.11 µM; GI50 [26]: 1.45 µM; TGI [26]: > 20.6 µM; GI50 [27]: 2.02 µM; TGI [27]: 9.38 µM; GI50 [28]: 1.31 µM; TGI [28]: 4.09 µM; GI50 [29]: 1.14 µM; TGI [29]: 3.2 µM; GI50 [31]: 1.48 µM; TGI [31]: 6.03 µM; GI50 [32]: 0.788 µM; TGI [32]: 2.56 µM; GI50 [33]: 1.2 µM; TGI [33]: 3.63 µM; GI50 [58]: 1.94 µM; TGI [58]: > 50 µM; GI50 [34]: 1.57 µM; TGI [34]: > 50 µM; GI50 [35]: 2.95 µM; TGI [35]: > 50 µM; GI50 [36]: 1.66 µM; TGI [36]: > 29.4 µM; GI50 [37]: 0.982 µM; TGI [37]: 3.99 µM; GI50 [38]: 0.859 µM; TGI [38]: 2.56 µM; GI50 [39]: 0.904 µM; TGI [39]: 3.48 µM; GI50 [40]: 1.5 µM; TGI [40]: > 50 µM; GI50 [41]: 0.878 µM; TGI [41]: 2 µM; GI50 [42]: 1.47 µM; TGI [42]: > 39.6 µM; GI50 [43]: 0.882 µM; TGI [43]: 1.91 µM; GI50 [44]: 1.49 µM; TGI [44]: 8.53 µM; GI50 [45]: 0.907 µM; TGI [45]: 1.91 µM; GI50 [46]: 1.41 µM; TGI [46]: 4.18 µM; GI50 [47]: 1.27 µM; TGI [47]: > 17.9 µM; GI50 [48]: 1.34 µM; TGI [48]: > 50 µM; GI50 [49]: 0.954 µM; TGI [49]: 3.79 µM; GI50 [50]: 1.22 µM; TGI [50]: 6.12 µM; GI50 [51]: 1.59 µM; TGI [51]: > 50 µM; GI50 [52]: 1.09 µM; TGI [52]: 6.48 µM; GI50 [53]: 1.59 µM; TGI [53]: 4.54 µM; GI50 [54]: 1.19 µM; TGI [54]: > 31.4 µM; GI50 [55]: 1.38 µM; TGI [55]: 5.74 µM; GI50 [56]: 1.14 µM; TGI [56]: 3.21 µM; GI50 [57]: 5.45 µM; TGI [57]: 16.1 µM
